According to US12540163B2 (priority 2021, dated 2026):
Values joined by “and” are separate entries in the source; they are usually repeats but may differ in a detail not shown here. Equal entries are not always repeated.

Experiments:
hHv1 = hHv1 (Homo sapiens, UniProt Q96D96)
[1] = system: non-capacitated human sperm
[2] = system: non-capacitated human sperm; remark: listed apart in the source

Chain of hHv1 (Q96D96 whole entry): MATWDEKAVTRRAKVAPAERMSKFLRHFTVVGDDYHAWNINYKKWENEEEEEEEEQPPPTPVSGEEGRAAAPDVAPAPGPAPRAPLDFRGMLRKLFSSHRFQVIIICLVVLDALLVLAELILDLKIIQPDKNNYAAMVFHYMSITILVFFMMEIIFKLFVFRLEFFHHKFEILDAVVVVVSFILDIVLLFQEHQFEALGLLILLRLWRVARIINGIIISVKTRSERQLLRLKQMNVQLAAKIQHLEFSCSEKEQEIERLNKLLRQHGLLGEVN

## O=C(O)CN(CCN(CC(=O)O)CC(=O)O)CC(=O)O [EDTA]
hHv1 in human sperm
  Sperm H+ current V1/2 after application: 4 mV and 4 ± 1 mV
  Sperm H+ current V1/2 shift: 11 mV
hHv1
  hHv1 in HEK293T cells V1/2 after application: −29 ± 3 mV

## CC(C)[C@H]1c2ccc(F)cc2CC[C@@]1(CCN(C)CCCc1nc2ccccc2[nH]1)OC(=O)C1CC1 [NNC]
[1]
  inhibition of Alb-potentiated [Ca2+]i increase: inhibited

## bovine serum albumin [BSA]
[2]
  change of pHi: increased the speed of cytoplasmic alkalization
[1]
  increase of progesterone-induced peak [Ca2+]i: 2.2 fold
